Measured values taken from patent US9649379B2, “Pharmaceutical composition and pharmaceutical kit for the treatment of hepatocellular carcinoma” (ALMA MATER STUDIORUM—UNIVERSITA' DI BOLOGNA, priority 2007, dated 2017).

System: Cleaved PARP
Test: Apoptosis analysis: Western blot of cleaved PARP after doxorubicin
Format: cell-based, human
Details: doxorubicin 100 μg/ml, infected HepG2 cells
Method: Stably infected cell populations of HepG2 cells were seeded into 6-well dishes and allowed to attach for 24 hours, washed and cultured in fresh complete medium with 100 ug/ml doxorubicin (Sigma) for 1 h, 3 h, 6 h, 12 h, 18 h and 24 h. Doxorubicin incorporation was detected by FACS counting of 10,000 events.
Cultured cells were dissolved in lysis buffer containing 10 mM Tris-HCl pH 7.4, 2.5 mM MgCl2, 1% TritonX 100, 1 mM DTT, 0.1 mM phenylmethylsulfonyl fluoride (PMSF), 1 mM Na3VO4, 1 mM NaF and protease inhibitors (Sigma Chemical Company, St. Louis, Mo.). The lysate was centrifuged at 4° C., 15,000×g, for 15 min and the supernatant assayed for protein concentration by Bio-Rad protein assay (Bio-Rad). […]
After repeated washing in PBS containing 0.1% Tween 20 (PBST), membranes were incubated with anti-mouse or anti-rabbit HRP-conjugated secondary antibodies using the EnVision dextran polymer visualization system (Dako). […] Digital images of autoradiographs were acquired with a Fluor-S MultiImager scanner (BioRad) and signals were quantitated with Quantity-one densitometric software (BioRad, Hercules, Calif.) in absorbance units after light calibration with a reference autoradiograph.

Structure (SMILES): COc1cccc2c1C(=O)c1c(O)c3c(c(O)c1C2=O)C[C@@](O)(C(=O)CO)C[C@@H]3O[C@H]1C[C@H](N)[C@H](O)[C@H](C)O1 [Doxorubicin, doxorubicin]
- cleavage of PARP: caused cleavage of PARP
